In publication PMC6968775, “Assessment of contribution of BCRP to intestinal absorption of various drugs using portal‐systemic blood concentration difference model in mice” (Pharmacology Research & Perspectives, 2020):
Several values for one entry are separate records, joined by “and”; a condition that tells them apart may be missing. Identical values can stand only once. Counter-ions that a name gives are not always drawn.

How the values were obtained:
[1] = Blood/plasma concentration ratio (R b) in fresh whole blood; type: in vitro ADME, FVB mice; conditions: fresh whole blood, FVB mouse whole blood, 37°C
Method: Similarly, the model compounds were added to plasma, and reference blood samples were obtained according to the same procedure. These concentrations of drugs in each sample were analyzed using HPLC (C B and C P, respectively). R b value was calculated by dividing C B by C P.

P‐gp [2] = test system: P‐gp
[3] = Pharmacokinetics after iv and oral administration, P‐S difference method, Bcrp(−/−) mice; type: in vivo
Method: (§1) Male Mdr1a/1b(−/−) and Bcrp(−/−) mice, and WT mice of the same genetic background (FVB) were obtained from Taconic Farms (Germantown, NY, USA). […] Food and water were available ad libitum. All experiments were carried out in accordance with the principles and procedures outlined in the National Institutes of Health Guide for the Care and Use of Laboratory.
(§2) All the mice were fasted overnight with free access to tap water. In the intravenous administration studies, model compounds were administered via the tail vein at doses of 1 mg/kg (n = 3). Following administration, blood samples were collected from the abdominal vein of the anesthetized mice at 0.083, 0.17, 0.5, 1, 2, 4, and 8 hours. […] Following administration, blood samples were taken from the portal and abdominal veins of the anesthetized mice at 0.083, 0.17, 0.5, 1, 2, 4, and 8 hours. The plasma samples were separated by centrifugation at 14 000g for 10 minutes at 4°C and stored at −30°C until analysis.
(§3) After organic layer was evaporated at 60°C, the resultant residues were dissolved in a mobile phase. For the determination of topotecan and sulfasalazine, plasma samples were mixed with acetonitrile, centrifuged at 750 g for 10 minutes at 4°C, and the supernatants were collected. After the evaporation of the supernatants, the residues were dissolved in a mobile phase, and acidified with phosphoric acid for topotecan. All drugs were analyzed by HPLC system (Shimadzu LC‐10AS pump, Shimadzu SIL‐10A autosampler) equipped with a reverse‐phase column (COSMOSIL 5C18‐AR‐II, 3.5‐μm […], 4.6 × 150 mm).
(§4) Elimination rate constant (k e) was determined by the least squares regression analysis of plasma concentration vs time curve. Elimination half‐life (t 1/2) was calculated using Eq.1:(1) t1/2=ln2/ke
(§5) Area under plasma concentration‐time curve (AUC) and area under the first moment curve (AUMC) from time 0 to infinity were calculated by trapezoidal rule.
(§6) Absorption rate constant (k a) after oral administration was calculated by the nonlinear least squares fitting with program MULTI.12
(§7) BA was calculated by Eq.5:(7) BA=AUCoral/AUCiv×Doseiv/Doseoral×100 where AUCoral is AUC after oral administration. Doseiv and Doseoral are administered dose in the intravenous and oral administration study, respectively.
(§8) Hepatic availability (F h) was calculated by Eq.6:(8) Fh=F/Fa×Fg

BCRP [4] = experiment: Human AQBCRP estimated from the clinical data; type: in vivo
[5] = Pharmacokinetics after iv and oral administration, P‐S difference method, wild‐type mice; type: in vivo; conditions: for half-life / AUC(0-inf) / Cmax / Tmax: 1 mg/kg
Method: as §1, §2, §3, §4, §5, §6, §7, §8

P‐gp [6] = conditions: Caco‐2 permeability study; unpublished data; ref Fujita et al, manuscript in preparation; cited from earlier work
BCRP [7] = conditions: calculated from k a in WT, Bcrp(−/−) and Mdr1a/1b(−/−) mice (Eq. 9)
[8] = Pharmacokinetics after iv and oral administration, P‐S difference method, Mdr1a/1b(−/−) mice; type: in vivo
Method: as §1, §2, §3, §4, §5, §6, §7, §8

[9] = cited from earlier work
[10] = Bcrp(−/−) mice, p.o. (ciprofloxacin 1, nitrofurantoin 2, topotecan 1, sulfasalazine 5 mg/kg)
[11] = male, Bcrp(−/−) (FVB background), mouse, portal vein plasma, po, 1 mg/kg
[12] = male, Bcrp(−/−) (FVB background), mouse, systemic plasma (abdominal vein), po, 1 mg/kg
[13] = male, FVB (wild-type), mouse, portal vein plasma, po
[14] = male, FVB (wild-type), mouse, systemic plasma (abdominal vein), po
[15] = wild‐type mice, p.o. (ciprofloxacin 1, nitrofurantoin 2, topotecan 1, sulfasalazine 5 mg/kg)
[16] = Mdr1a/1b(−/−) mice, p.o. (ciprofloxacin 1, nitrofurantoin 2, topotecan 1, sulfasalazine 5 mg/kg)
[17] = male, Mdr1a/1b(−/−) (FVB background), mouse, portal vein plasma, po, 1 mg/kg
[18] = male, Mdr1a/1b(−/−) (FVB background), mouse, systemic plasma (abdominal vein), po, 1 mg/kg

blood plasma ratio at 15 min, 1 µg/mL [1]: 0.94 ± 0.05
AQ P‐gp (in vivo) (P‐gp [2]; calculated from k a in WT, Bcrp(−/−) and Mdr1a/1b(−/−) mice (Eq. 10)): 0.08
R P‐gp (rate of P‐gp contribution) (P‐gp [2]; in vivo (mice), calculated from F a F g in WT, Bcrp(−/−) and Mdr1a/1b(−/−) mice (Eq. 12)): 0.06
F h [3, 10]: 74.0%
k a [3, 10]: 5.18 h⁻¹
BA ([3]; Bcrp(−/−) mice, p.o. (ciprofloxacin 1, nitrofurantoin 2, topotecan 1, sulfasalazine 5 mg/kg) vs iv 1 mg/kg): 76.3%
F a F g ([3]; Bcrp(−/−) mice, p.o. (ciprofloxacin 1, nitrofurantoin 2, topotecan 1, sulfasalazine 5 mg/kg), P‐S difference method): 103%
k a, bcrp ([3]; Table 5 summary, Bcrp(−/−) mice, oral administration): 5.18
(F a F g)bcrp ([3]; as fraction, Bcrp(−/−) mice, oral administration): 1.03
half-life ([3]; male, Bcrp(−/−) (FVB background), mouse, plasma, iv, 1 mg/kg, Bcrp(−/−) mice, iv 1 mg/kg): 89.4 min
Cmax [3, 11]: 855 nM
Tmax [3, 11]: 4.8 min
Cmax [3, 12]: 476 nM
Tmax [3, 12]: 10.2 min
AUC(0-inf) ([3]; male, FVB Bcrp(−/−), mouse, plasma (systemic, abdominal vein), iv, 1 mg/kg, Bcrp(−/−) mice, iv 1 mg/kg, read-out: AUC 0→∞): 1.49 µM·h
clearance ([3]; male, FVB Bcrp(−/−), mouse, plasma (systemic, abdominal vein), Bcrp(−/−) mice, iv 1 mg/kg, read-out: CL tot (converted)): 24.5 mL/min/kg
Vd ([3]; male, FVB Bcrp(−/−), mouse, plasma (systemic, abdominal vein), Bcrp(−/−) mice, iv 1 mg/kg, read-out: Vdss): 2.21 L/kg
AUC(0-inf) ([3]; male, FVB Bcrp(−/−), mouse, portal vein plasma, po, 1 mg/kg, Bcrp(−/−) mice, p.o. (ciprofloxacin 1, nitrofurantoin 2, topotecan 1, sulfasalazine 5 mg/kg), portal vein (pv) plasma, read-out: AUC 0→∞ (AUCpv)): 1.51 µM·h
AUC(0-inf) ([3]; male, FVB Bcrp(−/−), mouse, portal vein plasma, po, Bcrp(−/−) mice, p.o. (ciprofloxacin 1, nitrofurantoin 2, topotecan 1, sulfasalazine 5 mg/kg), portal vein (pv) plasma, read-out: AUC 0→∞ (AUCpv)): 1.51 µM·h
half-life ([3]; male, FVB Bcrp(−/−), mouse, systemic plasma (abdominal vein), po, 1 mg/kg, Bcrp(−/−) mice, p.o. (ciprofloxacin 1, nitrofurantoin 2, topotecan 1, sulfasalazine 5 mg/kg), systemic (sys) plasma): 88.2 min
AUC(0-inf) ([3]; male, FVB Bcrp(−/−), mouse, systemic plasma (abdominal vein), po, 1 mg/kg, Bcrp(−/−) mice, p.o. (ciprofloxacin 1, nitrofurantoin 2, topotecan 1, sulfasalazine 5 mg/kg), systemic (sys) plasma, read-out: AUC 0→∞ (AUCsys)): 1.14 µM·h
AUC(0-inf) ([3]; male, FVB Bcrp(−/−), mouse, systemic plasma (abdominal vein), po, Bcrp(−/−) mice, p.o. (ciprofloxacin 1, nitrofurantoin 2, topotecan 1, sulfasalazine 5 mg/kg), systemic (sys) plasma, read-out: AUC 0→∞ (AUCsys)): 1.14 µM·h
AUC pv and AUC sys after oral administration, Bcrp(−/−) mice vs WT mice ([3]; oral administration): approximately 3 fold
human AQBCRP (BCRP [4]): 0.58
k a, wt ([5]; Table 5 summary, WT mice, oral administration): 3.18
(F a F g) wt ([5]; as fraction, WT mice, oral administration): 0.57
clearance ([5]; male, FVB (wild-type), mouse, plasma (systemic, abdominal vein), wild‐type mice, iv 1 mg/kg, read-out: CL tot (converted)): 36.7 mL/min/kg
Vd ([5]; male, FVB (wild-type), mouse, plasma (systemic, abdominal vein), wild‐type mice, iv 1 mg/kg, read-out: Vdss): 2.59 L/kg
half-life ([5]; male, FVB (wild-type), mouse, plasma, iv, wild‐type mice, iv 1 mg/kg): 75.6 min
AUC(0-inf) ([5]; male, FVB (wild-type), mouse, plasma, iv, wild‐type mice, iv 1 mg/kg, read-out: AUC 0→∞): 0.994 µM·h
Cmax [5, 13]: 720 nM
Tmax [5, 13]: 4.8 min
AUC(0-inf) ([5]; male, FVB (wild-type), mouse, portal vein plasma, po, wild‐type mice, p.o. (ciprofloxacin 1, nitrofurantoin 2, topotecan 1, sulfasalazine 5 mg/kg), portal vein (pv) plasma, read-out: AUC 0→∞ (AUCpv)): 0.577 µM·h
Cmax [5, 14]: 218 nM
Tmax [5, 14]: 30 min
half-life ([5]; male, FVB (wild-type), mouse, systemic plasma (abdominal vein), po, wild‐type mice, p.o. (ciprofloxacin 1, nitrofurantoin 2, topotecan 1, sulfasalazine 5 mg/kg), systemic (sys) plasma): 62.4 min
AUC(0-inf) ([5]; male, FVB (wild-type), mouse, systemic plasma (abdominal vein), po, wild‐type mice, p.o. (ciprofloxacin 1, nitrofurantoin 2, topotecan 1, sulfasalazine 5 mg/kg), systemic (sys) plasma, read-out: AUC 0→∞ (AUCsys)): 0.37 µM·h
F h [5, 15]: 65.6%
k a [5, 15]: 3.18 h⁻¹
F a F g ([5]; wild‐type mice, p.o. (ciprofloxacin 1, nitrofurantoin 2, topotecan 1, sulfasalazine 5 mg/kg), P‐S difference method): 57% and 56.8%
AQ bcrp (in vivo) (BCRP [7]): 0.35
F h [8, 16]: 54.8%
k a [8, 16]: 3.68 h⁻¹
BA ([8]; Mdr1a/1b(−/−) mice, p.o. (ciprofloxacin 1, nitrofurantoin 2, topotecan 1, sulfasalazine 5 mg/kg) vs iv 1 mg/kg): 34.9%
F a F g ([8]; Mdr1a/1b(−/−) mice, p.o. (ciprofloxacin 1, nitrofurantoin 2, topotecan 1, sulfasalazine 5 mg/kg), P‐S difference method): 63.8%
k a, P‐gp ([8]; Table 5 summary, Mdr1a/1b(−/−) mice, oral administration): 3.68
(F a F g)P‐gp ([8]; as fraction, Mdr1a/1b(−/−) mice, oral administration): 0.64
clearance ([8]; male, FVB Mdr1a/1b(−/−), mouse, plasma (systemic, abdominal vein), Mdr1a/1b(−/−) mice, iv 1 mg/kg, read-out: CL tot (converted)): 35.5 mL/min/kg
Vd ([8]; male, FVB Mdr1a/1b(−/−), mouse, plasma (systemic, abdominal vein), Mdr1a/1b(−/−) mice, iv 1 mg/kg, read-out: Vdss): 2.19 L/kg
AUC(0-inf) ([8]; male, FVB Mdr1a/1b(−/−), mouse, portal vein plasma, po, 1 mg/kg, read-out: AUC 0→∞ (AUCpv)): 0.589 µM·h
AUC(0-inf) ([8]; male, FVB Mdr1a/1b(−/−), mouse, systemic plasma (abdominal vein), po, 1 mg/kg, read-out: AUC 0→∞ (AUCsys)): 0.358 µM·h
half-life ([8]; male, Mdr1a/1b(−/−) (FVB background), mouse, plasma, Mdr1a/1b(−/−) mice, iv 1 mg/kg): 64.8 min
AUC(0-inf) ([8]; male, Mdr1a/1b(−/−) (FVB background), mouse, plasma, Mdr1a/1b(−/−) mice, iv 1 mg/kg, read-out: AUC 0→∞): 1.02 µM·h
Cmax [8, 17]: 664 nM
Tmax [8, 17]: 4.8 min
Cmax [8, 18]: 242 nM
Tmax [8, 18]: 10.2 min
half-life [8, 18]: 73.8 min
Structure (SMILES): CC[C@@]1(O)C(=O)OCc2c1cc1n(c2=O)Cc2cc3c(CN(C)C)c(O)ccc3nc2-1 [topotecan, Topotecan HCl]
AQp‐gp in vitro (Caco‐2) (P‐gp [6]): 0.14
BA after oral administration ([9]; human clinical studies): about 40%
human BA ([9]; human): 40%
oral BA, patients heterozygous variant for the BCRP SNP vs normal BCRP ([9]; human): 1.3 fold
BA when GF120918 is orally coadministered ([9]; human, with GF120918 (BCRP inhibitor)): 100%
